Data reported in US20240025906A1 (NEURON23, INC., priority 2022, published 2024).

How the values were obtained:
TYK2 JH2 = molecular target: T1, TYK2 JH2 (Homo sapiens, UniProt P29597); assay: TYK2 JH2 binding assay (KINOMEscan KdELECT competitive binding); conditions: TYK2 JH2 domain, DiscoverX KINOMEscan KdELECT (Assay A); read-out: Biochemical TYK2_DiscoverX_JH2_BND_Kd
T1 construct: purchased DiscoverX (KINOMEscan KdELECT service); host or cells: E. coli BL21-derived (T7 phage display) or HEK-293
Procedure, shortened: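 Kd values come from qPCR measurement of kinase retained on an immobilized-ligand resin after 1 h room-temperature competition with compound in an 11-point, 3-fold series.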

[1] = tested on: JAK1/TYK2 pSTAT5 (Tyr694/699) in THP-1 cell line; assay: IFNa-stimulated JAK1/TYK2 pSTAT5 (Tyr694/699) inhibition cellular assay, AlphaLISA; type: cell-based; conditions: Homo sapiens; THP-1 cells, IFNa-stimulated, AlphaLISA (Assay B); read-out: Cellular_THP1_IFNa-pSTATS_TYK2
Procedure, shortened: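 THP-1 cells (2e4/well in HBSS) were preincubated with compound (8 points, 6-fold steps from 10000 nM final) for 1 h at 37 °C, then stimulated with IFNa (added at 100 ng/mL) for 30 min. Lysate pSTAT5 was read by AlphaLISA at 615 nm. IC50 came from a 4-parameter fit with bottom 0 and Hill −1.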

T1 sequence (P29597 589-875 limits assumed): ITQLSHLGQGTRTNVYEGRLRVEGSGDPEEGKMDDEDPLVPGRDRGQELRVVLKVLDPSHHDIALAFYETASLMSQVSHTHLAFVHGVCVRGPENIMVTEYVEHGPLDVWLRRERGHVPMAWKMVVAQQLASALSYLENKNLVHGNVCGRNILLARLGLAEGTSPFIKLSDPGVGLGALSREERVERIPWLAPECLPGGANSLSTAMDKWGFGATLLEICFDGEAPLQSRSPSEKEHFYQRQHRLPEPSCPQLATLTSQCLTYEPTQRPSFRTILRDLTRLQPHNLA

| SMILES | Kd (TYK2 JH2) [nM] | IC50 [1] [nM] |
| --- | --- | --- |
| CNc1ncc(-c2nc3ccc(N4CCC(F)(F)CC4)cn3n2)c2cc(NC(=O)C3CC3)ncc12 [Example 483, N-(5-(6-(4,4-difluoropiperidin-1-yl)-[1,2,4]triazolo[1,5-a]pyridin-2-yl)-8-(methylamino)-2,7-naphthyridin-3-yl)cyclopropanecarboxamide] | ≤ 100 | ≤ 500 |
| CNc1ncc(-c2nc3ccc(N4CCC(F)CC4)cn3n2)c2cc(NC(=O)C3CC3)ncc12 [Example 484, N-(5-(6-(4-fluoropiperidin-1-yl)-[1,2,4]triazolo[1,5-a]pyridin-2-yl)-8-(methylamino)-2,7-naphthyridin-3-yl)cyclopropanecarboxamide] | ≤ 100 | ≤ 500 |
| CNc1ncc(-c2nc3ccc(N4CCCC(F)(F)C4)cn3n2)c2cc(NC(=O)C3CC3)ncc12 [Example 485, N-(5-(6-(3,3-difluoropiperidin-1-yl)-[1,2,4]triazolo[1,5-a]pyridin-2-yl)-8-(methylamino)-2,7-naphthyridin-3-yl)cyclopropanecarboxamide] | ≤ 100 | ≤ 500 |
| CNc1ncc(-c2nc3ccc(N4CCC(F)C4)cn3n2)c2cc(NC(=O)C3CC3)ncc12 (stereo not shown) [Example 486, N-(5-(6-(3-fluoropyrrolidin-1-yl)-[1,2,4]triazolo[1,5-a]pyridin-2-yl)-8-(methylamino)-2,7-naphthyridin-3-yl)cyclopropanecarboxamide] | ≤ 100 | ≤ 500 |
| CNc1ncc(-c2nc3ccc(N4C5CCC4COC5)cn3n2)c2cc(NC(=O)C3CC3)ncc12 [Example 487, N-(5-(6-(3-oxa-8-azabicyclo[3.2.1]octan-8-yl)-[1,2,4]triazolo[1,5-a]pyridin-2-yl)-8-(methylamino)-2,7-naphthyridin-3-yl)cyclopropanecarboxamide] | ≤ 100 | ≤ 500 |
| CNc1ncc(-c2nc3ccc(N4C[C@@H]5C[C@H]4CO5)cn3n2)c2cc(NC(=O)C3CC3)ncc12 [Example 488, N-(5-(6-((1S,4S)-2-oxa-5-azabicyclo[2.2.1]heptan-5-yl)-[1,2,4]triazolo[1,5-a]pyridin-2-yl)-8-(methylamino)-2,7-naphthyridin-3-yl)cyclopropanecarboxamide] | ≤ 100 | ≤ 500 |
| CNc1ncc(-c2nc3ccc(N4C[C@H]5C[C@@H]4CO5)cn3n2)c2cc(NC(=O)C3CC3)ncc12 [Example 489, N-(5-(6-((1R,4R)-2-oxa-5-azabicyclo[2.2.1]heptan-5-yl)-[1,2,4]triazolo[1,5-a]pyridin-2-yl)-8-(methylamino)-2,7-naphthyridin-3-yl)cyclopropanecarboxamide] | ≤ 100 | ≤ 500 |
| CNc1ncc(-c2nc3cccc(Cl)n3n2)c2cc(NC(=O)C3CC3)ncc12 [Example 490, N-(5-(5-chloro-[1,2,4]triazolo[1,5-a]pyridin-2-yl)-8-(methylamino)-2,7-naphthyridin-3-yl)cyclopropanecarboxamide] | ≤ 100 | ≤ 500 |
| CNc1ncc(-c2nc3c(Cl)cccn3n2)c2cc(NC(=O)C3CC3)ncc12 [Example 491, N-(5-(8-chloro-[1,2,4]triazolo[1,5-a]pyridin-2-yl)-8-(methylamino)-2,7-naphthyridin-3-yl)cyclopropanecarboxamide] | ≤ 100 | ≤ 500 |
| CNc1ncc(-c2nc3cc(OC)ccn3n2)c2cc(NC(=O)C3CC3)ncc12 [Example 492, N-(5-(7-methoxy-[1,2,4]triazolo[1,5-a]pyridin-2-yl)-8-(methylamino)-2,7-naphthyridin-3-yl)cyclopropanecarboxamide] | ≤ 100 | ≤ 500 |
| CNc1ncc(-c2nc3ccc(C(C)(F)F)cn3n2)c2cc(NC(=O)C3CC3)ncc12 [Example 493, N-(5-(6-(1,1-difluoroethyl)-[1,2,4]triazolo[1,5-a]pyridin-2-yl)-8-(methylamino)-2,7-naphthyridin-3-yl)cyclopropanecarboxamide] | ≤ 100 | ≤ 500 |
| CNc1ncc(-c2nc3ccc(OC(F)(F)F)cn3n2)c2cc(NC(=O)C3CC3)ncc12 [Example 493A, N-(8-(methylamino)-5-(6-(trifluoromethoxy)-[1,2,4]triazolo[1,5-a]pyridin-2-yl)-2,7-naphthyridin-3-yl)cyclopropanecarboxamide] | ≤ 100 | ≤ 500 |
| CNc1ncc(-c2nc3ccc(OC4CC4)cn3n2)c2cc(NC(=O)C3CC3)ncc12 [Example 494, N-(5-(6-cyclopropoxy-[1,2,4]triazolo[1,5-a]pyridin-2-yl)-8-(methylamino)-2,7-naphthyridin-3-yl)cyclopropanecarboxamide] | ≤ 100 | ≤ 500 |
| CNc1ncc(-c2nc3ccc(OCC4CC4)cn3n2)c2cc(NC(=O)C3CC3)ncc12 [Example 495, N-(5-(6-(cyclopropylmethoxy)-[1,2,4]triazolo[1,5-a]pyridin-2-yl)-8-(methylamino)-2,7-naphthyridin-3-yl)cyclopropanecarboxamide] | ≤ 100 | ≤ 500 |
| CNc1ncc(-c2nc3ccc(C(F)(F)F)cn3n2)c2cc(NC(=O)C3CC3)ncc12 [Example 496, N-(8-(methylamino)-5-(6-(trifluoromethyl)-[1,2,4]triazolo[1,5-a]pyridin-2-yl)-2,7-naphthyridin-3-yl)cyclopropanecarboxamide] | ≤ 100 | ≤ 500 |
| CNc1ncc(-c2nc3ccc(S(C)(=O)=O)cn3n2)c2cc(NC(=O)C3CC3)ncc12 [Example 497, N-(8-(methylamino)-5-(6-(methylsulfonyl)-[1,2,4]triazolo[1,5-a]pyridin-2-yl)-2,7-naphthyridin-3-yl)cyclopropanecarboxamide] | ≤ 100 | ≤ 500 |
| CNc1ncc(-c2nc3ccc(OCC(C)(C)C#N)cn3n2)c2cc(NC(=O)C3CC3)ncc12 [Example 498, N-(5-(6-(2-cyano-2-methylpropoxy)-[1,2,4]triazolo[1,5-a]pyridin-2-yl)-8-(methylamino)-2,7-naphthyridin-3-yl)cyclopropanecarboxamide] | ≤ 100 | ≤ 500 |
| CNc1ncc(-c2nc3cc(F)c(N4CCOC(C)C4)cn3n2)c2cc(NC(=O)C3CC3)ncc12 (stereo not shown) [Example 499, N-(5-(7-fluoro-6-(2-methylmorpholino)-[1,2,4]triazolo[1,5-a]pyridin-2-yl)-8-(methylamino)-2,7-naphthyridin-3-yl)cyclopropanecarboxamide] | ≤ 100 | ≤ 500 |
| CNc1ncc(-c2nc3ccc(OCc4ccccc4)cn3n2)c2cc(NC(=O)C3CC3)ncc12 [Example 500, N-(5-(6-(benzyloxy)-[1,2,4]triazolo[1,5-a]pyridin-2-yl)-8-(methylamino)-2,7-naphthyridin-3-yl)cyclopropanecarboxamide] | ≤ 100 | ≤ 500 |
| CNc1ncc(-c2nc3ccc(OCC(C)(C)O)cn3n2)c2cc(NC(=O)C3CC3)ncc12 [Example 501, N-(5-(6-(2-hydroxy-2-methylpropoxy)-[1,2,4]triazolo[1,5-a]pyridin-2-yl)-8-(methylamino)-2,7-naphthyridin-3-yl)cyclopropanecarboxamide] | ≤ 100 | ≤ 500 |
| CNc1ncc(-c2nc3ccc(N4CC5CC(CN(C)C5)C4)cn3n2)c2cc(NC(=O)C3CC3)ncc12 [Example 502, N-(5-(6-(7-methyl-3,7-diazabicyclo[3.3.1]nonan-3-yl)-[1,2,4]triazolo[1,5-a]pyridin-2-yl)-8-(methylamino)-2,7-naphthyridin-3-yl)cyclopropanecarboxamide] | ≤ 100 | ≤ 500 |
| CNc1ncc(-c2nc3ccc(C)cn3n2)c2cc(NC(=O)C3CC3)ncc12 [Example 503, N-(5-(6-methyl-[1,2,4]triazolo[1,5-a]pyridin-2-yl)-8-(methylamino)-2,7-naphthyridin-3-yl)cyclopropanecarboxamide] | ≤ 100 | ≤ 500 |
| CNc1ncc(-c2nc3ccc(N4CC5CN(C)CC(C4)O5)cn3n2)c2cc(NC(=O)C3CC3)ncc12 [Example 504, N-(5-(6-(7-methyl-9-oxa-3,7-diazabicyclo[3.3.1]nonan-3-yl)-[1,2,4]triazolo[1,5-a]pyridin-2-yl)-8-(methylamino)-2,7-naphthyridin-3-yl)cyclopropanecarboxamide] | ≤ 100 | ≤ 500 |
| CNc1ncc(-c2nc3c(F)cc(C)cn3n2)c2cc(NC(=O)C3CC3)ncc12 [Example 505, N-(5-(8-fluoro-6-methyl-[1,2,4]triazolo[1,5-a]pyridin-2-yl)-8-(methylamino)-2,7-naphthyridin-3-yl)cyclopropanecarboxamide] | ≤ 100 | ≤ 500 |
| CCO/C=C\c1cccc2nc(-c3cnc(NC)c4cnc(NC(=O)C5CC5)cc34)nn12 [Example 506, (Z)—N-(5-(5-(2-ethoxyvinyl)-[1,2,4]triazolo[1,5-a]pyridin-2-yl)-8-(methylamino)-2,7-naphthyridin-3-yl)cyclopropanecarboxamide] | ≤ 100 | ≤ 500 |
| CCOCCc1cccc2nc(-c3cnc(NC)c4cnc(NC(=O)C5CC5)cc34)nn12 [Example 507, N-(5-(5-(2-ethoxyethyl)-[1,2,4]triazolo[1,5-a]pyridin-2-yl)-8-(methylamino)-2,7-naphthyridin-3-yl)cyclopropanecarboxamide] | ≤ 100 | ≤ 500 |
